Data reported in the supplement of paper PMC10307832.

Assays:
Assay in all cases: relative viability (nuclei count vs DMSO), 5 days (fraction); higher = more cells survive
[1] = tested on: NCI-H1395
In short: (§1)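 A single step with final 0.05% Triton X-100, 1% formaldehyde and 1 ug/ml Hoechst fixed the cells and stained nuclei 5 days after treatment. Lung cancer cell lines in 1536-well plates had been treated by pin tool the day after seeding with one drug alone or a fixed anchor-drug dose plus five library-drug doses (not always all listed) in √10 steps, and nuclei were counted on 4× images. Relative viability is the ratio of nuclei in treated wells to nuclei in vehicle wells, taken as the median of duplicate plates.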

[2] = tested on: NCI-H358
In short: as §1

[3] = tested on: NCI-H1792
In short: as §1

[4] = tested on: NCI-H2085
In short: as §1

[5] = tested on: NCI-H838
In short: as §1

[6] = tested on: UMC-11
In short: as §1

[7] = tested on: NCI-H1666
In short: as §1

[8] = tested on: PC-14
In short: as §1

[9] = tested on: LCLC-103H
In short: as §1

[10] = tested on: NCI-H1651
In short: as §1

[11] = tested on: NCI-H322M
In short: as §1

[12] = tested on: NCI-H2087
In short: as §1

[13] = tested on: LK-2
In short: as §1

[14] = tested on: NCI-H23
In short: as §1

[15] = tested on: H3255
In short: as §1

[16] = tested on: NCI-H1355
In short: as §1

[17] = tested on: ABC-1
In short: as §1

[18] = tested on: A-427
In short: as §1

[19] = tested on: NCI-H661
In short: as §1

[20] = tested on: CAL-12T
In short: as §1

[21] = tested on: NCI-H2228
In short: as §1

COCC1(CO)C(=O)C2CCN1CC2 (stereo not drawn) [PRIMA-1MET] + Nc1ncn([C@H]2C[C@H](O)[C@@H](CO)O2)c(=O)n1 [Decitabine] (partner 2 µM)
relative viability ([1]; first compound 0.2 µM): 0.712
relative viability ([1]; first compound 2 µM): 0.708
relative viability ([1]; first compound 6.325 µM): 0.838
relative viability ([1]; first compound 20 µM): 0.67
relative viability ([2]; first compound 0.2 µM): 0.214
relative viability ([2]; first compound 0.6325 µM): 0.154
relative viability ([2]; first compound 2 µM): 0.215
relative viability ([2]; first compound 6.325 µM): 0.207
relative viability ([2]; first compound 20 µM): 0.183
relative viability ([3]; first compound 0.2 µM): 0.523
relative viability ([3]; first compound 6.325 µM): 0.515
relative viability ([3]; first compound 20 µM): 0.434
relative viability ([4]; first compound 0.2 µM): 0.59
relative viability ([4]; first compound 0.6325 µM): 0.459
relative viability ([4]; first compound 2 µM): 0.526
relative viability ([4]; first compound 6.325 µM): 0.526
relative viability ([4]; first compound 20 µM): 0.198
relative viability ([5]; first compound 0.2 µM): 0.435
relative viability ([5]; first compound 0.6325 µM): 0.312
relative viability ([5]; first compound 2 µM): 0.474
relative viability ([5]; first compound 6.325 µM): 0.472
relative viability ([5]; first compound 20 µM): 0.453
relative viability ([6]; first compound 0.2 µM): 0.675
relative viability ([6]; first compound 0.6325 µM): 0.477
relative viability ([6]; first compound 2 µM): 0.399
relative viability ([6]; first compound 6.325 µM): 0.668
relative viability ([6]; first compound 20 µM): 0.46
relative viability ([7]; first compound 0.2 µM): 0.637
relative viability ([7]; first compound 0.6325 µM): 0.492
relative viability ([7]; first compound 2 µM): 0.645
relative viability ([7]; first compound 6.325 µM): 0.724
relative viability ([7]; first compound 20 µM): 0.756
relative viability ([8]; first compound 0.2 µM): 0.18
relative viability ([8]; first compound 0.6325 µM): 0.109
relative viability ([8]; first compound 2 µM): 0.211
relative viability ([8]; first compound 6.325 µM): 0.21
relative viability ([8]; first compound 20 µM): 0.0433
relative viability ([9]; first compound 0.2 µM): 0.757
relative viability ([9]; first compound 0.6325 µM): 0.55
relative viability ([9]; first compound 2 µM): 0.685
relative viability ([9]; first compound 6.325 µM): 0.78
relative viability ([9]; first compound 20 µM): 0.716
relative viability ([10]; first compound 0.2 µM): 0.616
relative viability ([10]; first compound 0.6325 µM): 0.178
relative viability ([10]; first compound 2 µM): 0.585
relative viability ([10]; first compound 6.325 µM): 0.666
relative viability ([10]; first compound 20 µM): 0.6
relative viability ([11]; first compound 0.2 µM): 0.725
relative viability ([11]; first compound 0.6325 µM): 0.696
relative viability ([11]; first compound 6.325 µM): 0.714
relative viability ([11]; first compound 20 µM): 0.6
relative viability ([12]; first compound 0.6325 µM): 0.226
relative viability ([12]; first compound 2 µM): 0.315
relative viability ([12]; first compound 6.325 µM): 0.251
relative viability ([12]; first compound 20 µM): 0.174
relative viability ([13]; first compound 0.2 µM): 0.262
relative viability ([13]; first compound 0.6325 µM): 0.158
relative viability ([13]; first compound 2 µM): 0.247
relative viability ([13]; first compound 6.325 µM): 0.182
relative viability ([13]; first compound 20 µM): 0.0846
relative viability ([14]; first compound 0.2 µM): 0.277
relative viability ([14]; first compound 0.6325 µM): 0.221
relative viability ([14]; first compound 2 µM): 0.282
relative viability ([14]; first compound 6.325 µM): 0.293
relative viability ([14]; first compound 20 µM): 0.162
relative viability ([15]; first compound 0.2 µM): 0.553
relative viability ([15]; first compound 0.6325 µM): 0.54
relative viability ([15]; first compound 2 µM): 0.524
relative viability ([15]; first compound 6.325 µM): 0.695
relative viability ([15]; first compound 20 µM): 0.522
relative viability ([16]; first compound 0.2 µM): 0.366
relative viability ([16]; first compound 0.6325 µM): 0.347
relative viability ([16]; first compound 2 µM): 0.338
relative viability ([16]; first compound 6.325 µM): 0.329
relative viability ([16]; first compound 20 µM): 0.323
relative viability ([17]; first compound 0.2 µM): 1.07
relative viability ([17]; first compound 2 µM): 0.983
relative viability ([17]; first compound 6.325 µM): 1.36
relative viability ([17]; first compound 20 µM): 0.552
relative viability ([18]; first compound 0.2 µM): 0.648
relative viability ([18]; first compound 0.6325 µM): 0.532
relative viability ([18]; first compound 2 µM): 0.621
relative viability ([18]; first compound 6.325 µM): 0.568
relative viability ([18]; first compound 20 µM): 0.501
relative viability ([19]; first compound 0.2 µM): 0.549
relative viability ([19]; first compound 0.6325 µM): 0.459
relative viability ([19]; first compound 2 µM): 0.517
relative viability ([19]; first compound 6.325 µM): 0.567
relative viability ([19]; first compound 20 µM): 0.497

COCC1(CO)C(=O)C2CCN1CC2 (stereo not drawn) [PRIMA-1MET] + O=C(c1cc(Cc2n[nH]c(=O)c3ccccc23)ccc1F)N1CCN(C(=O)C2CC2)CC1 [Olaparib] (partner 8 µM)
relative viability ([1]; first compound 0.2 µM): 0.51
relative viability ([1]; first compound 2 µM): 0.476
relative viability ([1]; first compound 6.325 µM): 0.432
relative viability ([1]; first compound 20 µM): 0.426
relative viability ([2]; first compound 0.2 µM): 0.623
relative viability ([2]; first compound 0.6325 µM): 0.555
relative viability ([2]; first compound 2 µM): 0.601
relative viability ([2]; first compound 6.325 µM): 0.635
relative viability ([2]; first compound 20 µM): 0.553
relative viability ([20]; first compound 0.2 µM): 0.806
relative viability ([20]; first compound 0.6325 µM): 0.747
relative viability ([20]; first compound 2 µM): 0.639
relative viability ([20]; first compound 6.325 µM): 0.445
relative viability ([20]; first compound 20 µM): 0.696
relative viability ([3]; first compound 0.2 µM): 0.899
relative viability ([3]; first compound 6.325 µM): 0.444
relative viability ([3]; first compound 20 µM): 0.457
relative viability ([4]; first compound 0.2 µM): 0.837
relative viability ([4]; first compound 0.6325 µM): 0.817
relative viability ([4]; first compound 2 µM): 0.805
relative viability ([4]; first compound 6.325 µM): 0.862
relative viability ([4]; first compound 20 µM): 0.191
relative viability ([21]; first compound 0.2 µM): 0.768
relative viability ([21]; first compound 0.6325 µM): 0.522
relative viability ([21]; first compound 2 µM): 0.762
relative viability ([21]; first compound 6.325 µM): 0.577
relative viability ([21]; first compound 20 µM): 0.0565
relative viability ([5]; first compound 0.2 µM): 0.788
relative viability ([5]; first compound 0.6325 µM): 0.76
relative viability ([5]; first compound 2 µM): 0.809
relative viability ([5]; first compound 6.325 µM): 0.789
relative viability ([5]; first compound 20 µM): 0.579
relative viability ([6]; first compound 0.2 µM): 0.526
relative viability ([6]; first compound 0.6325 µM): 0.312
relative viability ([6]; first compound 2 µM): 0.376
relative viability ([6]; first compound 6.325 µM): 0.417
relative viability ([6]; first compound 20 µM): 0.406
relative viability ([7]; first compound 0.2 µM): 0.773
relative viability ([7]; first compound 0.6325 µM): 0.753
relative viability ([7]; first compound 2 µM): 0.801
relative viability ([7]; first compound 6.325 µM): 0.735
relative viability ([7]; first compound 20 µM): 0.739
relative viability ([8]; first compound 0.2 µM): 0.261
relative viability ([8]; first compound 0.6325 µM): 0.208
relative viability ([8]; first compound 2 µM): 0.24
relative viability ([8]; first compound 6.325 µM): 0.275
relative viability ([8]; first compound 20 µM): 0.209
relative viability ([9]; first compound 0.2 µM): 0.841
relative viability ([9]; first compound 0.6325 µM): 0.717
relative viability ([9]; first compound 2 µM): 0.711
relative viability ([9]; first compound 6.325 µM): 0.8
relative viability ([9]; first compound 20 µM): 0.703
relative viability ([10]; first compound 0.2 µM): 0.226
relative viability ([10]; first compound 0.6325 µM): 0.158
relative viability ([10]; first compound 2 µM): 0.179
relative viability ([10]; first compound 6.325 µM): 0.202
relative viability ([10]; first compound 20 µM): 0.184
relative viability ([11]; first compound 0.2 µM): 0.851
relative viability ([11]; first compound 0.6325 µM): 0.668
relative viability ([11]; first compound 6.325 µM): 0.772
relative viability ([11]; first compound 20 µM): 0.568
relative viability ([12]; first compound 0.6325 µM): 0.589
relative viability ([12]; first compound 2 µM): 0.749
relative viability ([12]; first compound 6.325 µM): 0.649
relative viability ([12]; first compound 20 µM): 0.241
relative viability ([13]; first compound 0.2 µM): 0.823
relative viability ([13]; first compound 0.6325 µM): 0.632
relative viability ([13]; first compound 2 µM): 0.513
relative viability ([13]; first compound 6.325 µM): 0.423
relative viability ([13]; first compound 20 µM): 0.0842
relative viability ([14]; first compound 0.2 µM): 0.313
relative viability ([14]; first compound 0.6325 µM): 0.291
relative viability ([14]; first compound 2 µM): 0.287
relative viability ([14]; first compound 6.325 µM): 0.27
relative viability ([14]; first compound 20 µM): 0.082
relative viability ([15]; first compound 0.2 µM): 0.627
relative viability ([15]; first compound 0.6325 µM): 0.502
relative viability ([15]; first compound 2 µM): 0.576
relative viability ([15]; first compound 6.325 µM): 0.606
relative viability ([15]; first compound 20 µM): 0.533
relative viability ([16]; first compound 0.2 µM): 0.768
relative viability ([16]; first compound 0.6325 µM): 0.745
relative viability ([16]; first compound 2 µM): 0.713
relative viability ([16]; first compound 6.325 µM): 0.818
relative viability ([16]; first compound 20 µM): 0.707
relative viability ([17]; first compound 0.2 µM): 0.993
relative viability ([17]; first compound 2 µM): 0.664
relative viability ([17]; first compound 6.325 µM): 0.662
relative viability ([17]; first compound 20 µM): 0.616
relative viability ([18]; first compound 0.2 µM): 0.918
relative viability ([18]; first compound 0.6325 µM): 0.607
relative viability ([18]; first compound 2 µM): 0.746
relative viability ([18]; first compound 6.325 µM): 0.765
relative viability ([18]; first compound 20 µM): 0.687
relative viability ([19]; first compound 0.2 µM): 0.827
relative viability ([19]; first compound 0.6325 µM): 0.721
relative viability ([19]; first compound 2 µM): 0.76
relative viability ([19]; first compound 6.325 µM): 0.753
relative viability ([19]; first compound 20 µM): 0.751
